Test system: GABA (non-selective)
Assay: In vitro radioligand binding assay, GABA (non-selective), [3H]GABA
Conditions: rat cerebral cortex membranes
Procedure: Certain compounds were tested by in vitro binding assays using standard procedures. […] These receptors and assays are well known to those skilled in the art, as exemplified by the following: Abramovitz, M. et al. (2000), Biochem. Biophys. Acta., 1483: 285-293 (EP4, IP (PGI2)); Aharony, D. et al. (1993), Mol. Pharmacol., 44: 356-363 (NK2); Ardati, A. et al. (1997), Mol. Pharmacol., 51: 816-824 (NOP (ORL1)); Bignon, E. et al. (1999), J. Pharmacol. Exp. Ther. 289: 742-751 (CCK1 (CCKA)); Bloomquist, B. T. et al. (1998), Biochem. Biophys. Res. Commun., 243: 474-479 (GAL2); Brockhaus, M. et al. (1990), Proc. Natl. Acad. Sci. U.S.A., 87: 3127-3131 (TNF-α); Brown, G. B. (1986), J. Neurosci., 6: 2064-2070 (Na+ channel (site 2)); Buchan, K. W. et al. (1994), Brit. J. Pharmacol., 112: 1251-1257 (ETA); Cesura, A. M. et al. (1990), Mol. Pharmacol., 37: 358-366 (MAO-A); Choi, D. S. et al. (1994), FEBS Lett., 352: 393-399 (5-HT2B); Clark, A. F. et al. (1996), Invest. Ophtalmol. Vis. […]

Fc1ccc2c(c1)[C@H]([C@@H]1CCCN1)OCC2 [Compound I-5, (2S)-2-((R)-7-fluoroisochroman-1-yl)pyrrolidine]
GABA percent inhibition of specific binding: 57%

Reference: US10336732B2, “1-heterocyclyl isochromanyl compounds and analogs for treating CNS disorders” (Sunovion Pharmaceuticals Inc., priority 2015, dated 2019)
